pIC50: −log10 of the molar value.
Experiments:
[1] = biological target: T1, HIF-2α (Homo sapiens, UniProt Q99814); experiment: HIF-2α luciferase reporter assay in HIF-Luc-786-O cells; format: cell-based
T1 construct: host or cells: 786-O cells stably transduced with Cignal Lenti HIF Luc Reporter (only the reporter was introduced, not HIF-2α)
Summary of the method: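 786-O cells stably carrying a HIF-responsive luciferase reporter, 20,000/well in OptiMem with 1% DMSO, exposed to compound up to 50 uM for 20 h at 37 °C. ONE-Glo luminescence normalised to DMSO and no-cell controls; IC50 by four-parameter fit.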

[2] = biological target: T2, Histidine tagged HIF-2α protein containing PAS-B domain (240-350) (Homo sapiens, UniProt Q99814); experiment: HIF-2α Scintillation Proximity Assay (SPA) binding assay; details: 50 nM HIF-2α protein, 25 nM 3H-tracer
T2 construct: HIF-2α protein containing PAS-B domain (240-350); made in house
T2 sequence (Q99814 240-350): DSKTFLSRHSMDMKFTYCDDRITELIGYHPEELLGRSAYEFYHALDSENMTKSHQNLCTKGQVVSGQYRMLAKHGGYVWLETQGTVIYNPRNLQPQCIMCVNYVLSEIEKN
Experimental: HIF-2α Scintillation Proximity Assay (SPA) Binding Assay:
Tritium labeled compound N-(3-chlorophenyl)-4-nitro-2,1,3-benzoxadiazol-5-amine was obtained from American Radiolabeled Chemicals Inc. and copper chelate PVT SPA beads were from PerkinElmer (Cat #RPNQ0095). Histidine tagged HIF-2α protein containing PAS-B domain (240-350) was prepared and purified in house.
Compounds solubilized in DMSO were dispensed into a white 384-well polystyrene non-binding flat clear bottom plate (Greiner Bio-One, Cat #781903) using an HP D300 dispenser. Ten microliters of HIS-tagged HIF-2α protein in buffer (25 mM Tris-HCl, pH 7.4, 150 mM NaCl, 0.15% BSA and 0.001% Tween 20) was added to the compound wells and allowed to incubate for 1 hour at room temperature. Ten microliters of SPA bead mix were added to the wells and incubated for an additional 45 minutes, followed by 10 ul of ^3H-tracer solution. Final assay conditions comprised 50 nM HIF-2α protein, 25 nM radiolabeled tracer and 3 ug beads per well with compounds in 2% DMSO. The plate was read using a MicroBeta Microplate Counter (PerkinElmer) for luminescence detection. The IC50 values of the test compounds were determined from compound dose response curves fitted using a standard four parameter fit equation and are reported in Table 1, Table 2, and Table 3.

T1 sequence (Q99814 whole entry): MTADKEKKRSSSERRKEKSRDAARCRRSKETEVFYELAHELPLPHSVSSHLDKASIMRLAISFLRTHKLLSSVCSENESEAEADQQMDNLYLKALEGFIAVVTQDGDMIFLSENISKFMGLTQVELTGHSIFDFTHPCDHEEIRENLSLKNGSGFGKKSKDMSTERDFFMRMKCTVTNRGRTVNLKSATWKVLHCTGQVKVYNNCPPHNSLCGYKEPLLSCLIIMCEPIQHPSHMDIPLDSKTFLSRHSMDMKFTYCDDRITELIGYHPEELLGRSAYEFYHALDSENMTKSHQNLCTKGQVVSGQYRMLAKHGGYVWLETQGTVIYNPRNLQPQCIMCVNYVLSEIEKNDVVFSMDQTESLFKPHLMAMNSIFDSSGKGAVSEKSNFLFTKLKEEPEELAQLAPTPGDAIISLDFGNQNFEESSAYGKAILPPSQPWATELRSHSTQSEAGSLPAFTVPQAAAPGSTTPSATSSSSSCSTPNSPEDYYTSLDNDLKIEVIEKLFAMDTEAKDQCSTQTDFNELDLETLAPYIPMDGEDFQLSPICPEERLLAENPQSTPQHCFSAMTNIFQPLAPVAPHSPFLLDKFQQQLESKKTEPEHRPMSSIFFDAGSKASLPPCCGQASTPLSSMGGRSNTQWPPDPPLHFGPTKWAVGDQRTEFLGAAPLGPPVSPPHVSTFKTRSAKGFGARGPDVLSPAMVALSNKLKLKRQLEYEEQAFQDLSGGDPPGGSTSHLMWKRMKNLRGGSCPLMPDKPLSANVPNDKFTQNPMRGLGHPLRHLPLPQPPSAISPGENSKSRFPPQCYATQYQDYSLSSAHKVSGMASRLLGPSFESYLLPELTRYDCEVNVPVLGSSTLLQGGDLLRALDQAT

Structure (SMILES)	pIC50 ([1]; Table 3, 20 hours incubation)	also measured
N#Cc1cc(F)cc2c1C(c1ccc(C#N)c3c1CC(F)(F)[C@H]3O)CCC2 (mixture of isomers) [Example 141, 8-[(1S)-7-cyano-2,2-difluoro-1-hydroxy-1,3-dihydroinden-4-yl]-3-fluoro-5,6,7,8-tetrahydronaphthalene-1-carbonitrile]		pIC50 ([1]; Table 2, 20 hours incubation): > 7.00; pIC50 ([2]; Table 2): > 7.00
CS(=O)(=O)c1ccc(N2CCCc3cc(F)cc(C#N)c32)c2c1[C@H](O)C(F)(F)C2 (racemic) [Example 31]		pIC50 ([1]; Table 1, 20 hours incubation): 6.00 to 7.00; pIC50 ([2]; Table 1): 6.00 to 7.00
CS(=O)(=O)c1ccc(C2CCCc3cc(F)cc(C#N)c32)c2c1[C@H](O)[C@H](F)C2 (stereo in doubt) [Example 7, (8S)-3-fluoro-8-((1S,2R)-2-fluoro-1-hydroxy-7-(methylsulfonyl)-2,3-dihydro-1H-inden-4-yl)-5,6,7,8-tetrahydronaphthalene-1-carbonitrile]		pIC50 ([1]; Table 1, 20 hours incubation): > 7.00; pIC50 ([2]; Table 1): > 7.00
CS(=O)(=O)c1ccc(N2CCCc3cc(F)cc(F)c32)c2c1[C@H](O)C(F)(F)C2 (stereo in doubt) [Example 22, 4-(6,8-difluoro-1,2,3,4-tetrahydroquinolin-1-yl)-2,2-difluoro-7-methanesulfonyl-2,3-dihydro-1H-inden-1-ol]		pIC50 ([1]; Table 1, 20 hours incubation): < 6.00; pIC50 ([2]; Table 1): 6.00 to 7.00
CS(=O)(=O)c1ccc([C@H]2CCCc3cc(F)cc(F)c32)c2c1[C@H](O)[C@H](F)C2 (stereo in doubt) [Example 99]		pIC50 ([1]; Table 1, 20 hours incubation): 6.00 to 7.00; pIC50 ([2]; Table 1): 6.00 to 7.00
CS(=O)(=O)c1ccc(C2CCCc3cc(F)cc(F)c32)c(Cl)c1C#N (stereo not drawn) [Example 1, 2-chloro-3-(6,8-difluoro-1,2,3,4-tetrahydronaphthalen-1-yl)-6-methanesulfonylbenzonitrile]		pIC50 ([1]; Table 1, 20 hours incubation): < 6.00; pIC50 ([2]; Table 1): 6.00 to 7.00
N#Cc1cc(F)cc2c1[C@@H](c1ccc(-c3cccc4ncoc34)c3c1CC(F)(F)[C@H]3O)CC[C@@H]2F [Example 228, (5S,8R)-8-[(1S)-7-(1,3-benzoxazol-7-yl)-2,2-difluoro-1-hydroxy-1,3-dihydroinden-4-yl]-3,5-difluoro-5,6,7,8-tetrahydronaphthalene-1-carbonitrile]	> 7.00	
N#Cc1cc(F)cc2c1[C@@H](c1ccc(-c3cccc(F)c3N)c3c1CC(F)(F)[C@H]3O)CC[C@@H]2F [Example 229, (5S,8R)-8-[(1S)-7-(2-amino-3-fluorophenyl)-2,2-difluoro-1-hydroxy-1,3-dihydroinden-4-yl]-3,5-difluoro-5,6,7,8-tetrahydronaphthalene-1-carbonitrile]	> 7.00	
N#Cc1cc(F)cc2c1[C@@H](c1ccc(-c3cnc4c(N)cccn34)c3c1CC(F)(F)[C@H]3O)CC[C@@H]2F [Example 230, (5S,8R)-8-[(1S)-7-(8-aminoimidazo[1,2-a]pyridin-3-yl)-2,2-difluoro-1-hydroxy-1,3-dihydroinden-4-yl]-3,5-difluoro-5,6,7,8-tetrahydronaphthalene-1-carbonitrile]	> 7.00	
N#Cc1cc(F)cc2c1[C@@H](c1ccc(-c3cc(F)ccc3N)c3c1CC(F)(F)[C@H]3O)CC[C@@H]2F [Example 235, (5S,8R)-8-[(1S)-7-(2-amino-5-fluorophenyl)-2,2-difluoro-1-hydroxy-1,3-dihydroinden-4-yl]-3,5-difluoro-5,6,7,8-tetrahydronaphthalene-1-carbonitrile]	> 7.00	
N#Cc1cc(F)cc2c1[C@@H](c1ccc(-c3cnc4ccccn34)c3c1CC(F)(F)[C@H]3O)CC[C@@H]2F [Example 239, (5S,8R)-8-[(1S)-2,2-difluoro-1-hydroxy-7-imidazo[1,2-a]pyridin-3-yl-1,3-dihydroinden-4-yl]-3,5-difluoro-5,6,7,8-tetrahydronaphthalene-1-carbonitrile]	> 7.00	
CS(=O)(=O)c1ccc([C@H]2CC[C@H](F)c3cc(F)cc(C#N)c32)c2c1[C@H](O)[C@@](F)(C#N)C2 [Example 247, (5S,8R)-8-[(1S,2S)-2-cyano-2-fluoro-1-hydroxy-7-methylsulfonyl-1,3-dihydroinden-4-yl]-3,5-difluoro-5,6,7,8-tetrahydronaphthalene-1-carbonitrile]	> 7.00	
CS(=O)(=O)c1ccc([C@H]2CC[C@H](F)c3cc(F)cc(C#N)c32)c2c1[C@H](O)[C@](F)(C#N)C2 [Example 248, (5S,8R)-8-[(1S,2R)-2-cyano-2-fluoro-1-hydroxy-7-methylsulfonyl-1,3-dihydroinden-4-yl]-3,5-difluoro-5,6,7,8-tetrahydronaphthalene-1-carbonitrile]	6.00 to 7.00	

Continued, in another order:

pIC50 ([1]; Table 3, 20 hours incubation)	Structure (SMILES)	also measured
6.00 to 7.00	Cc1ncccc1-c1ncc([C@H]2CC[C@H](F)c3cc(F)cc(C#N)c32)c2c1[C@H](O)[C@H](F)C2 [Example 227, (5S,8S)-3,5-difluoro-8-[(6R,7S)-6-fluoro-7-hydroxy-1-(2-methylpyridin-3-yl)-5H16H17H-cyclopenta[c]pyridin-4-yl]-5,6,7,8-tetrahydronaphthalene-1-carbonitrile]	
6.00 to 7.00	Cc1nc2ccccn2c1-c1ccc([C@H]2CC[C@H](F)c3cc(F)cc(C#N)c32)c2c1[C@H](O)C(F)(F)C2 [Example 231, (5S,8R)-8-[(1S)-2,2-difluoro-1-hydroxy-7-(2-methylimidazo[1,2-a]pyridin-3-yl)-1,3-dihydroinden-4-yl]-3,5-difluoro-5,6,7,8-tetrahydronaphthalene-1-carbonitrile]	
> 7.00	Cc1ncn(C)c1-c1ccc([C@H]2CC[C@H](F)c3cc(F)cc(C#N)c32)c2c1[C@H](O)C(F)(F)C2 [Example 232, (5S,8R)-8-[(1S)-7-(3,5-dimethylimidazol-4-yl)-2,2-difluoro-1-hydroxy-1,3-dihydroinden-4-yl]-3,5-difluoro-5,6,7,8-tetrahydronaphthalene-1-carbonitrile]	
6.00 to 7.00	N#Cc1cc(F)cc2c1[C@@H](c1ccc(-c3cnc4ncccn34)c3c1CC(F)(F)[C@H]3O)CC[C@@H]2F [Example 233, (5S,8R)-8-[(1S)-2,2-difluoro-1-hydroxy-7-imidazo[1,2-a]pyrimidin-3-yl-1,3-dihydroinden-4-yl]-3,5-difluoro-5,6,7,8-tetrahydronaphthalene-1-carbonitrile]	
> 7.00	N#Cc1cc(F)cc2c1[C@@H](c1ccc(-c3cnc4cnccn34)c3c1CC(F)(F)[C@H]3O)CC[C@@H]2F [Example 234, (5S,8R)-8-[(1S)-2,2-difluoro-1-hydroxy-7-imidazo[1,2-a]pyrazin-3-yl-1,3-dihydroinden-4-yl]-3,5-difluoro-5,6,7,8-tetrahydronaphthalene-1-carbonitrile]	
> 7.00	Cc1ncc(-c2ccc([C@H]3CC[C@H](F)c4cc(F)cc(C#N)c43)c3c2[C@H](O)C(F)(F)C3)n1C [Example 236, (5S,8R)-8-[(1S)-7-(2,3-dimethylimidazol-4-yl)-2,2-difluoro-1-hydroxy-1,3-dihydroinden-4-yl]-3,5-difluoro-5,6,7,8-tetrahydronaphthalene-1-carbonitrile]	
> 7.00	N#Cc1cc(F)cc2c1[C@@H](c1ccc(-c3cnc4cccnn34)c3c1CC(F)(F)[C@H]3O)CC[C@@H]2F [Example 237, (5S,8R)-8-[(1S)-2,2-difluoro-1-hydroxy-7-imidazo[1,2-b]pyridazin-3-yl-1,3-dihydroinden-4-yl]-3,5-difluoro-5,6,7,8-tetrahydronaphthalene-1-carbonitrile]	
6.00 to 7.00	Cn1ccnc1-c1ccc([C@H]2CC[C@H](F)c3cc(F)cc(C#N)c32)c2c1[C@H](O)C(F)(F)C2 [Example 238, (5S,8R)-8-[(1S)-2,2-difluoro-1-hydroxy-7-(1-methylimidazol-2-yl)-1,3-dihydroinden-4-yl]-3,5-difluoro-5,6,7,8-tetrahydronaphthalene-1-carbonitrile]	
6.00 to 7.00	N#Cc1cc(F)cc2c1[C@@H](c1ccc(-c3c[nH]c4ncccc34)c3c1CC(F)(F)[C@H]3O)CC[C@@H]2F [Example 243, (5S,8R)-8-[(1S)-2,2-difluoro-1-hydroxy-7-{1H-pyrrolo[2,3-b]pyridin-3-yl}-2,3-dihydro-1H-inden-4-yl]-3,5-difluoro-5,6,7,8-tetrahydronaphthalene-1-carbonitrile]	
> 7.00	Cc1cccnc1-c1ccc([C@H]2CC[C@H](F)c3cc(F)cc(C#N)c32)c2c1[C@H](O)C(F)(F)C2 [Example 244, (5S,8R)-8-[(1S)-2,2-difluoro-1-hydroxy-7-(3-methylpyridin-2-yl)-2,3-dihydro-1H-inden-4-yl]-3,5-difluoro-5,6,7,8-tetrahydronaphthalene-1-carbonitrile]	
6.00 to 7.00	N#Cc1cc(F)cc2c1[C@@H](c1ccc(-c3cccn4ccnc34)c3c1CC(F)(F)[C@H]3O)CC[C@@H]2F [Example 245, (5S,8R)-8-[(1S)-2,2-difluoro-1-hydroxy-7-{imidazo[1,2-a]pyridin-8-yl}-2,3-dihydro-1H-inden-4-yl]-3,5-difluoro-5,6,7,8-tetrahydronaphthalene-1-carbonitrile]	
